Measurements taken from ChEMBL document CHEMBL3301361, “Experimental in vitro DMPK and physicochemical data on a set of publicly disclosed compounds”.
Values after ≈ are worked out from the molar mass of the structure shown.

Legend:
[1] = rat, plasma, 5 h
[2] = human, plasma, 5 h
in vitro [3] = details: SD, HW or BN, rat, plasma
physchem [4] = details: octan-1-ol/water, pH 7.4, LogD7.4
in vitro [5] = details: hepatocytes
physchem [6] = test: physchem
physchem [7] = test: physchem; remark: listed apart in the source
physchem [8] = test: physchem; remark: listed apart in the source
[9] = ASTRAZENECA: Third most basic pKa value (pKa B3) determined by absorption and potentiometric titration using standard methodology from Sirius Analytical. Experimental range Bases: >= 2.; type: physicochemical; details: read-out: pKa_B3
in vitro [10] = details: human
physchem [11] = test: physchem; remark: listed apart in the source
physchem [12] = details: pH 7.4 buffer
in vitro [13] = details: human, plasma, PPB
[14] = CD1, BC, CD1, NMRI, SCID, or Nd, rat, hepatocytes
in vitro [15] = details: Beagle, dog, plasma
in vitro [16] = details: human, hepatocytes
in vitro [17] = details: Dunkin Hartley, guinea pig, plasma
[18] = dog, plasma, 5 h
in vitro [19] = details: mouse, plasma

In the case of `O=C(NCc1cccnc1OCC(F)(F)F)c1cncc(-c2ccc(Cl)cc2)c1`, the PPB [1] is reported as 99.87%.
In the case of `COc1ccc([C@@H]2Sc3ccccc3N(CCN(C)C)C(=O)[C@@H]2OC(C)=O)cc1.Cl` [DILTIAZEM HYDROCHLORIDE], the PPB [2] is reported as 35.46%.
For `O=C(NCCc1ccccc1Cl)c1cc(-n2ncc(=O)[nH]c2=O)ccc1Cl`, the fraction unbound at 5 h (in vitro [3]) was 0.0224, the PPB [2] was 97.2% and the logD (physchem [4]) was 1.29. For the same compound, the hepatocyte CLint (in vitro [5]) was 8 µL/min/1e6 cells and the pKa (physchem [6]) was 6.1.
Compound `COc1cc2nc(-c3ccc(N4CCN(C)CC4)cc3)nc(NCCN3CCOCC3)c2cc1OC` has a pKa (physchem [7]) of 7.93, a pKa (physchem [8]) of 6.78 and a pKa [9] of 5.6.
`CCCCNc1cc(C(=O)O)cc(S(N)(=O)=O)c1Oc1ccccc1` [BUMETANIDE] showed a fraction unbound at 5 h (in vitro [3]) of 0.0366, a microsomal CLint (in vitro [10]; microsomes) of 4 µL/min/mg and a pKa (physchem [7]) of 6.07. For the same compound, the pKa (physchem [11]) was 9.73, the logD (physchem [4]) was -0.3 and the solubility thermodynamic (physchem [12]) was 1450 µM (≈ 527 µg/mL). The hepatocyte CLint (in vitro [5]) was 145 µL/min/1e6 cells, the fraction unbound at 5 h (in vitro [13]) was 0.0156 and the pKa (physchem [6]) was 3.49.
`O=C(O)C[C@H](O)C[C@H](O)/C=C/c1c(C2CC2)nc2ccccc2c1-c1ccc(F)cc1` [PITAVASTATIN] gave a fraction unbound at 5 h (in vitro [3]) of 0.0064, a microsomal CLint (in vitro [10]; microsomes) of under 3 µL/min/mg and a logD (physchem [4]) of 0.91. For the same compound, the fraction unbound at 5 h (in vitro [13]) was 0.02, the CLint [14] was 7.11 microL/min/1E6 cells and the fraction unbound at 5 h (in vitro [15]) was 0.0293.
`Cc1ccc(C(=O)N(CCCN)[C@@H](c2nc3cc(Cl)ccc3c(=O)n2Cc2ccccc2)C(C)C)cc1` [ISPINESIB] gave a PPB [2] of 99.4%.
For `COc1ccc([C@@H]2Sc3ccccc3N(CCN(C)C)C(=O)[C@@H]2OC(C)=O)cc1` [DILTIAZEM], the microsomal CLint (in vitro [10]; liver microsomes) was 43.6 µL/min/mg, the PPB [2] was 75.97% and the pKa (physchem [7]) was 8.08. The hepatocyte CLint (in vitro [16]) was 9.33 µL/min/1e6 cells, the logD (physchem [4]) was 1.99 and the hepatocyte CLint (in vitro [5]) was over 150 µL/min/1e6 cells. It also gave a fraction unbound at 5 h (in vitro [15]) of 0.349.
Compound `NCCc1ccc(O)c(O)c1F` has a pKa (physchem [7]) of 8, a pKa (physchem [11]) of 10.3 and a pKa (physchem [6]) of 7.8.
For `O=C(c1ccc(OCCN2CCCCC2)cc1)c1c(-c2ccc(O)cc2)sc2cc(O)ccc12` [RALOXIFENE], the microsomal CLint (in vitro [10]; liver microsomes) was 21 µL/min/mg, the logD (physchem [4]) was 4.13 and the solubility thermodynamic (physchem [12]) was 9.1 µM (≈ 4.31 µg/mL). It also gave a hepatocyte CLint (in vitro [5]) of 30 µL/min/1e6 cells, a PPB ([1]; SD, HW or BN) of 99.5% and a fraction unbound at 5 h (in vitro [13]) of 0.005. For the same compound, the fraction unbound at 5 h (in vitro [15]) was 0.0057.
`COCCCC/C(=N\OCCN)c1ccc(C(F)(F)F)cc1` [FLUVOXAMINE] gave a PPB [2] of 75.55%.
`O=C(NC[C@H]1CN(c2ccc(N3CCOCC3=O)cc2)C(=O)O1)c1ccc(Cl)s1` [RIVAROXABAN] showed a PPB [1] of 94.56%.
`Oc1nc(-c2ccc(C(F)(F)F)cc2)nc2c1CSCC2` showed a PPB [2] of 97.6%.
Work on `O=C(Nc1c(Cl)cncc1Cl)c1ccc(OC(F)F)c(OCC2CC2)c1` [ROFLUMILAST] yielded a fraction unbound at 5 h (in vitro [3]) of 0.0114, a microsomal CLint (in vitro [10]; microsomes) of 5 µL/min/mg and a PPB [2] of 99.5%. It also gave a logD (physchem [4]) of 3.95, a solubility thermodynamic (physchem [12]) of 1.1 µM (≈ 0.444 µg/mL) and a hepatocyte CLint (in vitro [5]) of over 150 µL/min/1e6 cells.
In the case of `OCCN1CCN(CCCN2c3ccccc3Sc3ccc(Cl)cc32)CC1` [PERPHENAZINE], the fraction unbound at 5 h (in vitro [3]) is reported as 0.0146 and the PPB [2] is reported as 98.51%.
In the case of `CON=C(C(=O)N[C@@H]1C(=O)N2C(C(=O)O)=C(COC(C)=O)CS[C@H]12)c1csc(N)n1`, the pKa (physchem [7]) is reported as 2, the pKa (physchem [11]) is reported as 9.43 and the pKa (physchem [6]) is reported as 3.35.
`Cc1ccc(S(=O)(=O)Nc2c(C(=O)N[C@@H](C)C(C)(C)C)c(C)nn2-c2ccccc2)cc1` gave a PPB [2] of 98.89%, a logD (physchem [4]) of 1.44 and a solubility thermodynamic (physchem [12]) of 1020 µM (≈ 465 µg/mL). It also gave a fraction unbound at 5 h (in vitro [17]) of 0.0818, a PPB [1] of 95.82% and a fraction unbound at 5 h (in vitro [15]) of 0.0321.
Work on `Nc1nc2ccc(OC(F)(F)F)cc2s1` [RILUZOLE] yielded a PPB [2] of 97.13%.
`NCCc1ccc(O)c2nc(O)ccc12` gave a pKa (physchem [7]) of 7.7, a pKa (physchem [11]) of 10.2 and a pKa (physchem [6]) of 7.6.
Work on `Cc1ccc(-c2cc(C(F)(F)F)nn2-c2ccc(S(N)(=O)=O)cc2)cc1` [CELECOXIB] yielded a PPB [2] of 98.94%, a hepatocyte CLint (in vitro [16]) of 25.7 µL/min/1e6 cells and a logD (physchem [4]) of 3.42. The solubility thermodynamic (physchem [12]) was 2.2 µM (≈ 0.839 µg/mL).
`CCOc1ccc(-c2ccc(Cn3c(CC(C)(C)C(=O)O)c(SC(C)(C)C)c4cc(OCc5ccc(C)cn5)ccc43)cc2)cn1` [FIBOFLAPON] showed a microsomal CLint (in vitro [10]; liver microsomes) of 9.77 µL/min/mg, a hepatocyte CLint (in vitro [5]) of 6.92 µL/min/1e6 cells and a PPB [18] of 99.92%.
`COc1cc(-n2cnc3cc(-c4ccc(Cl)cc4)sc3c2=O)ccc1OC[C@H](O)C1CC1` gave a fraction unbound at 5 h (in vitro [19]) of 0.0018, a hepatocyte CLint (in vitro [5]) of 9.77 µL/min/1e6 cells and a PPB [1] of 98.81%. For the same compound, the fraction unbound at 5 h (in vitro [13]) was 0.0021 and the fraction unbound at 5 h (in vitro [15]) was 0.0014.
Compound `CCCc1c2nc(C(=O)O)cc(NC)c2cc2c(=O)cc(C(=O)O)oc12` [MINOCROMIL] has a pKa (physchem [7]) of 8.8, a pKa (physchem [11]) of under 2 and a pKa (physchem [6]) of under 2.
Work on `CC1(C)S[C@@H]2[C@H](NC(=O)[C@H](N)c3ccc(O)cc3)C(=O)N2[C@H]1C(=O)O` [AMOXICILLIN] yielded a pKa (physchem [7]) of 7.52, a pKa (physchem [11]) of 9.77 and a pKa (physchem [6]) of 4.03.
Compound `Fc1cccc(COc2ccc(Nc3ncnc4ccc(-c5cccc(N6CCOCC6)c5)cc34)cc2Cl)c1` has a microsomal CLint (in vitro [10]; microsomes) of 63.1 µL/min/mg, a logD (physchem [4]) of 3.2 and a CLint [14] of 44.67 microL/min/1E6 cells.
`Cc1c(Sc2ccc(Cl)cc2)c2c(NS(C)(=O)=O)cccc2n1CC(=O)O` showed a fraction unbound at 5 h (in vitro [3]) of 0.0031, a hepatocyte CLint (in vitro [16]) of 4.76 µL/min/1e6 cells and a pKa (physchem [11]) of 10.2. It also gave a logD (physchem [4]) of 0.21, a hepatocyte CLint (in vitro [5]) of 5 µL/min/1e6 cells and a fraction unbound at 5 h (in vitro [13]) of 0.0104. For the same compound, the pKa (physchem [6]) was 2.9.
In the case of `CN(C)CCNc1cc(-c2ccc(N3CCN(C)CC3)cc2)nc2ccccc12`, the pKa (physchem [7]) is reported as 8.94, the pKa (physchem [8]) is reported as 7.96 and the pKa [9] is reported as 7.31.
`NCc1ccccc1CC(=O)N[C@@H]1C(=O)N2C(C(=O)O)=C(CSc3nnnn3CC(=O)O)CS[C@H]12` [CEFORANIDE] showed a pKa (physchem [7]) of 8.88, a pKa (physchem [11]) of 3.63 and a pKa (physchem [6]) of 2.01.
Compound `CSc1ccc2c(c1)N(CCC1CCCCN1C)c1ccccc1S2` (stereo not given) [THIORIDAZINE] has a microsomal CLint (in vitro [10]; microsomes) of 50 µL/min/mg, a logD (physchem [4]) of 3.76 and a hepatocyte CLint (in vitro [5]) of 114 µL/min/1e6 cells. It also gave a PPB [1] of 99.3% and a fraction unbound at 5 h (in vitro [13]) of 0.0037.
`CC1(C)[C@H](NC(=O)/C(=N\OCc2cc(=O)c(O)cn2O)c2csc(N)n2)C(=O)N1OS(=O)(=O)O` gave a fraction unbound at 5 h (in vitro [3]) of 0.124 and a PPB [2] of 69.12%.
With `N#Cc1cc(-c2n[nH]c(-c3ccncc3)n2)ccn1` [TOPIROXOSTAT] the microsomal CLint (in vitro [10]; liver microsomes) was 5 µL/min/mg, the PPB [2] was 84.9% and the hepatocyte CLint (in vitro [5]) was under 3 µL/min/1e6 cells.
`Cc1ccc(-c2ccc3c(ccc4sc5c(c43)NC[C@@H](C)NC5=O)n2)cn1` gave a fraction unbound at 5 h (in vitro [19]) of 0.0229, a logD (physchem [4]) of 3.6 and a PPB [1] of 98.86%. The fraction unbound at 5 h (in vitro [13]) was 0.151.
With `CCc1nc2cc(O)ccc2c(Oc2ccc(/C=C/C(=O)O)cc2)c1-c1ccccc1` the pKa (physchem [7]) was 5.51, the pKa (physchem [11]) was 7.81 and the logD (physchem [4]) was 3. It also gave a fraction unbound at 5 h (in vitro [13]) of 0.0056 and a pKa (physchem [6]) of 4.34.
